Assay results: patent publication US8969363B2, “Heterocyclic compounds and uses thereof” (Infinity Pharmaceuticals, Inc., priority 2011, dated 2015)
pEC50, pIC50: −log10 of the molar value. Read-outs that look alike come from different tables or passages of the source.

Experiments:
[1] = biological target: PI3Kβ; experiment: PI3 Kinase HTRF assay, PI3Kβ; type: biochemical, human; conditions: 10 μM PIP2, 10 μM ATP, read-out: PI3K β IC50
Description: A PI3-Kinase HTRF® assay kit (cat No. 33-016) purchased from Millipore Corporation was used to screen compounds provided herein. This assay used specific, high affinity binding of the GRP1 pleckstrin homology (PH) domain to PIP3, the product of a Class 1A or 1B PI3 Kinase acting on its physiological substrate PIP2. During the detection phase of the assay, a complex was generated between the GST-tagged PH domain and biotinylated short chain PIP3. The biotinylated PIP3 and the GST-tagged PH domain recruited fluorophores (Streptavidin-Allophycocyanin and Europium-labeled anti-GST respectively) to form the fluorescence resonance energy transfer (FRET) architecture, generating a stable time-resolved FRET signal. The FRET complex was disrupted in a competitive manner by non-biotinylated PIP3, a product formed in the PI3 Kinase assay.
PI3 Kinase α, β, γ and δ activity was assayed using the PI3 Kinase HTRF® assay kit (catalogue No. 33-016) purchased from Millipore Corporation. […] Purified recombinant PI3K enzyme was used to catalyze the phosphorylation of phosphatidylinositol 4,5-bisphosphate (PIP2 at 10 μM) to phosphatidylinositol 3,4,5-trisphosphate (PIP3) in the presence of 10 μM ATP. The assay was carried out in 384-well format and detected using a Perkin Elmer EnVision Xcite Multilabel Reader. Emission ratios were converted into percent inhibitions and imported into GraphPad Prism software. […] IC50 values were determined using a nonlinear regression model available in GraphPad Prism 5. […]

[2] = test system: Balb/c splenic B cells; experiment: B cell activation and proliferation assay (Alamar Blue); type: cell-based; conditions: Mus musculus
Protocol: The ability of one or more subject compounds to inhibit B cell activation and proliferation is determined according to standard procedures known in the art. For example, an in vitro cellular proliferation assay is established that measures the metabolic activity of live cells. The assay is performed in a 96 well microtiter plate using Alamar Blue reduction. Balb/c splenic B cells are purified over a Ficoll-Paque™ PLUS gradient followed by magnetic cell separation using a MACS B cell Isolation Kit (Miletenyi). Cells are plated in 90 μl at 50,000 cells/well in B Cell Media (RPMI+10% FBS+Penn/Strep+50 μM bME+5 mM HEPES). A compound provided herein is diluted in B Cell Media and added in a 10 μl volume. Plates are incubated for 30 min at 37° C. and 5% CO2 (0.2% DMSO final concentration). A 50 μl B cell stimulation cocktail is then added containing either 10 μg/ml LPS or 5 μg/ml F(ab′)2 Donkey anti-mouse […] plus 2 ng/ml recombinant mouse IL4 in B Cell Media. Plates are incubated for 72 hours at 37° C. and 5% CO2. A volume of 15 μL of Alamar Blue reagent is added to each well and plates are incubated for 5 hours at 37° C. and 5% CO2. Alamar Blue fluoresce is read at 560Ex/590Em, and IC50 or EC50 values are calculated using GraphPad Prism 5.

[3] = 'Greater than 10 μM' and 'Greater than 1 μM to 10 μM'

PI3Kβ, sequence (Q8BTI9 whole entry, the tested form may be a part): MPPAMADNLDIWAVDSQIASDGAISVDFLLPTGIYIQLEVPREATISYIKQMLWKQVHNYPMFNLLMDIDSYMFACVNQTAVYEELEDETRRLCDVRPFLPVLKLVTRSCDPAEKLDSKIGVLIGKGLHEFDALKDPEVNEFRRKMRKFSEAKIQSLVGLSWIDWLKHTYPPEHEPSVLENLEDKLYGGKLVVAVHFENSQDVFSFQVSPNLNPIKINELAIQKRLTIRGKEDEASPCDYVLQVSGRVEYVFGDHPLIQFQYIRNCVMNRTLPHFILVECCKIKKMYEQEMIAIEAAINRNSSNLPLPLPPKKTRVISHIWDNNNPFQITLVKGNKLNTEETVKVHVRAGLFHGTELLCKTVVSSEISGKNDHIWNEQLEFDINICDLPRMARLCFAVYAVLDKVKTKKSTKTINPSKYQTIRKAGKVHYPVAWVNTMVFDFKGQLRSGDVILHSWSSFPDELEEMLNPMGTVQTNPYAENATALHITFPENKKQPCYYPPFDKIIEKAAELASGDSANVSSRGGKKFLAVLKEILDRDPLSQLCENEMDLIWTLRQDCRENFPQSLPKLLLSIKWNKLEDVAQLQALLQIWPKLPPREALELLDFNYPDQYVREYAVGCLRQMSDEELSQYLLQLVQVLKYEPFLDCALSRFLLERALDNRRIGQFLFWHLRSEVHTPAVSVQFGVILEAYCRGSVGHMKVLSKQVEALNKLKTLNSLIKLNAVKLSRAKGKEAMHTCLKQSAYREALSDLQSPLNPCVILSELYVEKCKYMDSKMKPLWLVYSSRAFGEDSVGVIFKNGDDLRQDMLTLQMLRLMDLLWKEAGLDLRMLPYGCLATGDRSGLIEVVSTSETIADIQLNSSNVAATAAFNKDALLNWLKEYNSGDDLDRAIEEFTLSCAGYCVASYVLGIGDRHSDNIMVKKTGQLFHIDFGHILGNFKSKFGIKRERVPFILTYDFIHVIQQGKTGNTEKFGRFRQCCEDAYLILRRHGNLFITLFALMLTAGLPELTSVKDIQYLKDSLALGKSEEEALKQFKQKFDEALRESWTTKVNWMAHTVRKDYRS

Structure (SMILES) | pIC50 [1, 3] | pEC50 ([2]; 'Less than 100 nM') | other results
CCOC(=O)c1cnc(N[C@@H](C)c2cc3cccc(-c4ccnc(OC)c4)c3c(=O)n2-c2ccccc2)nc1N [IV-25] | < 5.00 |  | 
C[C@H](Nc1nc(N)nc2cccnc12)c1cc2cccc(-c3cnc4[nH]ccc4c3)c2c(=O)n1-c1ccccc1 [Compound I-83] |  | > 7.00 | 
C[C@H](Nc1ncnc(N)c1C#N)c1cc2cccc(C(F)(F)F)c2c(=O)n1-c1ccccc1 [III-42] | < 5.00 | > 7.00 | 
C[C@H](Nc1ncnc2ccnn12)c1cc2cccc(C(F)(F)F)c2c(=O)n1-c1ccccc1 [III-21] | 5.00 to 6.00 |  | 
C[C@H](Nc1nc(N)nc2nccnc12)c1cc2cccc(Cl)c2c(=O)n1-c1ccccc1 [IV-22] | 5.00 to 6.00 | > 7.00 | 
C[C@H](Nc1cc(Cl)ncc1C(N)=O)c1cc2cccc(Cl)c2c(=O)n1-c1ccccc1 [IV-21] | < 5.00 |  | 
COc1ncc(-c2cccc3cc([C@H](C)Nc4nc(OC)nc5cccnc45)n(-c4ccccc4)c(=O)c23)cn1 [Compound I-72] | < 5.00 |  | 
Cc1cc(-c2cccc3cc([C@H](C)Nc4ncnc5cccnc45)n(-c4ccccc4)c(=O)c23)ccn1 [Compound I-76] | 5.00 to 6.00 | > 7.00 | 
COc1cncc(-c2cccc3cc([C@H](C)Nc4nc(N)nc5cccnc45)n(-c4ccccc4)c(=O)c23)c1 [Compound I-58] | 5.00 to 6.00 | > 7.00 | 
COc1ncc(-c2cccc3cc([C@H](C)Nc4ccnc5ccnn45)n(-c4ccccc4)c(=O)c23)cn1 [II-47] | < 5.00 |  | 
C[C@H](Nc1nc(Cl)nc2scnc12)c1cc2cccc(C(F)(F)F)c2c(=O)n1-c1ccccc1 [III-24] | 5.00 to 6.00 |  | 
C[C@H](Nc1ncnc2cccnc12)c1cc2cccc(Cl)c2c(=O)n1C1CC1 [Compound I-23] |  | > 7.00 | pIC50 ([1]; 'Less than 100 nM'): > 7.00
COc1ccc(CNc2nc(N[C@@H](C)c3cc4cccc(-c5cnc(OC)nc5)c4c(=O)n3-c3ccccc3)c3ncccc3n2)cc1 [Compound I-93] | 5.00 to 6.00 |  | 
C[C@H](Nc1ncnc2ccnn12)c1cc2cccc(Cl)c2c(=O)n1-c1cccc(F)c1 [II-30] | 5.00 to 6.00 | > 7.00 | 
C[C@H](Nc1nc(N)ncc1C(F)(F)F)c1cc2cccc(C(F)(F)F)c2c(=O)n1-c1cccc(F)c1 [III-46] | 5.00 to 6.00 |  | pEC50 ([2]; 1 μM to 100 nM): 6.00 to 7.00
CNc1nc(N[C@@H](C)c2cc3cccc(NC)c3c(=O)n2-c2ccccc2)c2ncccc2n1 [Compound I-95] | < 5.00 |  | pEC50 ([2]; 1 μM to 100 nM): 6.00 to 7.00
C[C@H](Nc1nc(N)nc2cccnc12)c1cc2cccc(-c3cnc4ccccc4c3)c2c(=O)n1-c1ccccc1 [Compound I-82] | 5.00 to 6.00 | > 7.00 | 
C[C@H](Nc1cc(N)nc2ccnn12)c1cc2cccc(Cl)c2c(=O)n1-c1ccccc1 [II-49] | 5.00 to 6.00 | > 7.00 | 
CNc1nc(N[C@@H](C)c2cc3cccc(-c4cnc(C)nc4)c3c(=O)n2-c2ccccc2)c2ncccc2n1 [Compound I-98] | < 5.00 |  | pEC50 ([2]; 1 μM to 100 nM): 6.00 to 7.00

Structure (SMILES) | pIC50 [1, 3] | pEC50 ([2]; 'Less than 100 nM') | other results
C[C@H](Nc1ncnc2cccnc12)c1cc2cccc(C(=O)O)c2c(=O)n1-c1ccccc1 [Compound I-62] | < 5.00 |  | 
C[C@H](Nc1ccnc2cccnc12)c1cc2cccc(C(F)(F)F)c2c(=O)n1-c1ccccc1 [III-31] | 5.00 to 6.00 | > 7.00 | 
Cc1ccnc2cc(C(C)Nc3ncnc4cccnc34)n(-c3ccccc3)c(=O)c12 (stereo not shown) [Compound I-65] | 5.00 to 6.00 |  | 
C[C@H](Nc1ncnc2cccnc12)c1cc2cccc(Cl)c2c(=O)n1CCN1CCCC1 [Compound I-33] |  | > 7.00 | 
CNc1cccc2cc([C@H](C)Nc3nc(N)nc4cccnc34)n(-c3ccccc3)c(=O)c12 [Compound I-101] | < 5.00 | > 7.00 | 
C[C@H](NCc1cccnc1N)c1cc2cccc(Cl)c2c(=O)n1-c1ccccc1 [IV-8] | < 5.00 |  | 
C[C@H](Nc1ncnc2cccnc12)c1cc2cccc(Cl)c2c(=O)n1-c1cccc(F)c1 [Compound I-20] |  | > 7.00 | 
C[C@H](Nc1nc(Cl)nc2cccnc12)c1cc2cccc(-c3cnn(C)c3)c2c(=O)n1-c1cccc(F)c1 [Compound I-37] | < 5.00 |  | 
C[C@H](Nc1ccnn2ccnc12)c1cc2scc(-c3cnn(C)c3)c2c(=O)n1-c1ccccc1 [II-23] | < 5.00 |  | 
C[C@H](Nc1ncnc2cnccc12)c1cc2cccc(Cl)c2c(=O)n1-c1ccccc1 [IV-5] | < 5.00 |  | 
Cc1cc(-c2cccc3cc([C@H](C)Nc4nc(N)nc5cccnc45)n(-c4ccccc4)c(=O)c23)ccn1 [Compound I-81] | 5.00 to 6.00 | > 7.00 | 
Cc1ncc(-c2cccc3cc([C@H](C)Nc4ncnc5cccnc45)n(-c4ccccc4)c(=O)c23)cn1 [Compound I-41] | < 5.00 | > 7.00 | 
Cc1ncc(-c2cccc3cc([C@H](C)Nc4nc(N)nc5cccnc45)n(-c4ccccc4)c(=O)c23)cn1 [Compound I-59] | < 5.00 | > 7.00 | 
Cc1ncc(-c2cccc3cc([C@H](C)Nc4nc(N)nc5cccnc45)n(-c4ccccc4)c(=O)c23)s1 [Compound I-94] | 5.00 to 6.00 |  | 
C[C@H](Nc1ncnc2cccnc12)c1cc2cccc(-c3cnc(N)nc3)c2c(=O)n1-c1ccccc1 [Compound I-63] | 5.00 to 6.00 | > 7.00 | 
C[C@H](Nc1nc(N)nc2cccnc12)c1cc2cccc(-c3cnn(C)c3)c2c(=O)n1C1CC1 [Compound I-40] | 5.00 to 6.00 | > 7.00 | 
C[C@H](Nc1ccnc2ccnn12)c1cc2cccc(C(F)(F)F)c2c(=O)n1-c1cccc(F)c1 [III-11] | 5.00 to 6.00 | > 7.00 | 
C[C@H](Nc1ncnc2[nH]nc(C#N)c12)c1cc2cccc(Cl)c2c(=O)n1-c1ccccc1 [IV-11] | 5.00 to 6.00 | > 7.00 | 
COc1cncc(-c2cccc3cc([C@H](C)Nc4ncnc5cccnc45)n(-c4ccccc4)c(=O)c23)c1 [Compound I-45] | < 5.00 |  | 

Structure (SMILES) | pIC50 [1, 3] | pEC50 ([2]; 'Less than 100 nM') | other results
C[C@H](Nc1nc(O)nc2[nH]cnc12)c1cc2cccc(C(F)(F)F)c2c(=O)n1-c1cccc(F)c1 [III-48] | < 5.00 |  | 
C[C@H](Nc1cc(N)ncc1C(N)=O)c1cc2cccc(Cl)c2c(=O)n1-c1ccccc1 [IV-24] |  |  | pIC50 ([1]; 'Less than 100 nM'): > 7.00
C[C@H](Nc1ccnc2ccnn12)c1cc2scc(-c3cnn(C)c3)c2c(=O)n1-c1ccccc1 [II-21] | < 5.00 |  | 
C[C@H](Nc1ncc(C(F)(F)F)c(N)n1)c1cc2cccc(Cl)c2c(CCN2CCOCC2)n1 [IV-10] | < 5.00 |  | 
C[C@H](Nc1ncnc2cccnc12)c1cc2ccc(F)c(Cl)c2c(=O)n1-c1ccccc1 [Compound I-16] |  | > 7.00 | 
C[C@H](Nc1nc(N)nc2cccnc12)c1cc2cccc(Cl)c2c(=O)n1-c1ccccc1 [Compound I-92] |  |  | pIC50 ([1]; 'Less than 100 nM'): > 7.00
C[C@H](Nc1cc(Cl)ncc1C#N)c1cc2cccc(Cl)c2c(=O)n1-c1ccccc1 [IV-23] | < 5.00 |  | 
C[C@H](Nc1nc(Cl)nc2cccnc12)c1cc2cccc(-c3cnn(C)c3)c2c(=O)n1C1CC1 [Compound I-39] | < 5.00 |  | 
C[C@@H](c1cc2cccc(Cl)c2c(=O)n1-c1ccccc1)n1c(=O)[nH]c2cnc(N)nc21 [IV-26] | < 5.00 |  | 
C[C@H](Nc1ccn2nccc2n1)c1cc2cccc(Cl)c2c(=O)n1-c1ccccc1 [IV-6] | < 5.00 |  | 
C[C@H](Nc1nc(Cl)ns1)c1cc2cccc(Cl)c2c(=O)n1-c1ccccc1 [IV-27] | < 5.00 |  | 
COc1ncc(-c2cccc3cc([C@H](C)Nc4nc(O)nc5cccnc45)n(-c4ccccc4)c(=O)c23)cn1 [Compound I-77] | < 5.00 |  | 
C[C@H](Nc1nc(Cl)nc2cccnc12)c1cc2cccc(-c3cnn(C)c3)c2c(=O)n1-c1ccccc1 [Compound I-35] | < 5.00 |  | 
C[C@H](Nc1nccc2nccn12)c1cc2cccc(Cl)c2c(=O)n1-c1ccccc1 [IV-4] | < 5.00 |  | 
C[C@H](Nc1nc(N)ncc1C(F)(F)F)c1cc2cccc(C(F)(F)F)c2c(=O)n1-c1ccccc1 [III-32] | 5.00 to 6.00 |  | 
COc1nc(N[C@@H](C)c2cc3cccc(Cl)c3c(=O)n2-c2ccccc2)c2ncccc2n1 [Compound I-71] | < 5.00 |  | 
C[C@H](Nc1cc(Cl)nn2ccnc12)c1cc2cccc(-c3cnn(C)c3)c2c(=O)n1-c1cccc(F)c1 [II-16] | < 5.00 |  | 
C[C@H](Nc1nc(O)nc2cccnc12)c1cc2cccc(C(F)(F)F)c2c(=O)n1-c1cccc(F)c1 [III-47] | < 5.00 |  | 
